{"source": "PubChem BioAssay AID1963838", "about": "(Molecular Pharmacology Branch, DTP, NCI, 2024);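 also: spheroids exposed to compounds for seven days before readout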", "system": "855422-203-R-J1-PDC complex spheroid viability", "test": "Anticancer human tumor 855422-203-R-J1-PDC patient-derived bladder carcinoma cell line growth inhibition [POLQ]", "settings": "for IC50: curve of first compound; for viability, T/C: stronger effect = lower value", "summary_of_the_method": "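Complex spheroid viability model combining PDC tumour cells with endothelial (HUVEC) and MSC stromal cells. Novobiocin, ART-558 or RP6685 were tested singly and in combination with standard and investigational anticancer drugs. Each was titrated in half-log steps from near clinical Cmax, or from 10 microM where Cmax was unknown.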", "key": {"[1]": {"settings": "second compound 0.0316 µM, first compound 0.0316 µM"}, "[2]": {"settings": "second compound 0.0316 µM, first compound 0.1 µM"}, "[3]": {"settings": "second compound 0.0316 µM, first compound 0.316 µM"}, "[4]": {"settings": "second compound 0.0316 µM, first compound 1 µM"}, "[5]": {"settings": "second compound 0.0316 µM, first compound 3.16 µM"}, "[6]": {"settings": "second compound 0.0316 µM, first compound 10 µM"}, "[7]": {"settings": "second compound 0.1 µM, first compound 0.0316 µM"}, "[8]": {"settings": "second compound 0.1 µM, first compound 0.1 µM"}, "[9]": {"settings": "second compound 0.1 µM, first compound 0.316 µM"}, "[10]": {"settings": "second compound 0.1 µM, first compound 1 µM"}, "[11]": {"settings": "second compound 0.1 µM, first compound 3.16 µM"}, "[12]": {"settings": "second compound 0.1 µM, first compound 10 µM"}, "[13]": {"settings": "second compound 0.316 µM, first compound 0.0316 µM"}, "[14]": {"settings": "second compound 0.316 µM, first compound 0.1 µM"}, "[15]": {"settings": "second compound 0.316 µM, first compound 0.316 µM"}, "[16]": {"settings": "second compound 0.316 µM, first compound 1 µM"}, "[17]": {"settings": "second compound 0.316 µM, first compound 3.16 µM"}, "[18]": {"settings": "second compound 0.316 µM, first compound 10 µM"}, "[19]": {"settings": "second compound 1 µM, first compound 0.0316 µM"}, "[20]": {"settings": "second compound 1 µM, first compound 0.1 µM"}, "[21]": {"settings": "second compound 1 µM, first compound 0.316 µM"}, "[22]": {"settings": "second compound 1 µM, first compound 1 µM"}, "[23]": {"settings": "second compound 1 µM, first compound 3.16 µM"}, "[24]": {"settings": "second compound 1 µM, first compound 10 µM"}, "[25]": {"settings": "second compound 3.16 µM, first compound 0.0316 µM"}, "[26]": {"settings": "second compound 3.16 µM, first compound 0.1 µM"}, "[27]": {"settings": "second compound 3.16 µM, first compound 0.316 µM"}, "[28]": {"settings": "second compound 3.16 µM, first compound 1 µM"}, "[29]": {"settings": "second compound 3.16 µM, first compound 3.16 µM"}, "[30]": {"settings": "second compound 3.16 µM, first compound 10 µM"}, "[31]": {"settings": "second compound 10 µM, first compound 0.0316 µM"}, "[32]": {"settings": "second compound 10 µM, first compound 0.1 µM"}, "[33]": {"settings": "second compound 10 µM, first compound 0.316 µM"}, "[34]": {"settings": "second compound 10 µM, first compound 1 µM"}, "[35]": {"settings": "second compound 10 µM, first compound 3.16 µM"}, "[36]": {"settings": "second compound 10 µM, first compound 10 µM"}}, "data": [{"smiles": "CC1COCCN1c1cc(C2(O)CC3CCC(C2)O3)c2cnn(-c3ccn[nH]3)c2n1", "note": "(centres undefined) + COC1C(OC(N)=O)C(O)C(Oc2ccc3c(O)c(NC(=O)c4ccc(O)c(CC=C(C)C)c4)c(=O)oc3c2C)OC1(C)C", "values": [{"measurement": "IC50", "setting": "second compound 0.0316 µM", "result": 0.113, "unit": "µM"}, {"measurement": "IC50", "setting": "second compound 0.1 µM", "result": 0.0844, "unit": "µM"}, {"measurement": "IC50", "setting": "second compound 0.316 µM", "result": 0.106, "unit": "µM"}, {"measurement": "IC50", "setting": "second compound 1 µM", "result": 0.107, "unit": "µM"}, {"measurement": "IC50", "setting": "second compound 3.16 µM", "result": 0.0967, "unit": "µM"}, {"measurement": "IC50", "setting": "second compound 10 µM", "result": 0.0878, "unit": "µM"}, {"measurement": "viability, T/C", "setting": "[1]", "result": 94.3, "unit": "%"}, {"measurement": "viability, T/C", "setting": "[2]", "result": 54.2, "unit": "%"}, {"measurement": "viability, T/C", "setting": "[3]", "result": 14.5, "unit": "%"}, {"measurement": "viability, T/C", "setting": "[4]", "result": 8.78, "unit": "%"}, {"measurement": "viability, T/C", "setting": "[5]", "result": 6.63, "unit": "%"}, {"measurement": "viability, T/C", "setting": "[6]", "result": 3.87, "unit": "%"}, {"measurement": "viability, T/C", "setting": "[7]", "result": 84.8, "unit": "%"}, {"measurement": "viability, T/C", "setting": "[8]", "result": 44.1, "unit": "%"}, {"measurement": "viability, T/C", "setting": "[9]", "result": 13.4, "unit": "%"}, {"measurement": "viability, T/C", "setting": "[10]", "result": 9.17, "unit": "%"}, {"measurement": "viability, T/C", "setting": "[11]", "result": 6.55, "unit": "%"}, {"measurement": "viability, T/C", "setting": "[12]", "result": 4.3, "unit": "%"}, {"measurement": "viability, T/C", "setting": "[13]", "result": 99.6, "unit": "%"}, {"measurement": "viability, T/C", "setting": "[14]", "result": 52, "unit": "%"}, {"measurement": "viability, T/C", "setting": "[15]", "result": 18.9, "unit": "%"}, {"measurement": "viability, T/C", "setting": "[16]", "result": 10.2, "unit": "%"}, {"measurement": "viability, T/C", "setting": "[17]", "result": 8.4, "unit": "%"}, {"measurement": "viability, T/C", "setting": "[18]", "result": 3.49, "unit": "%"}, {"measurement": "viability, T/C", "setting": "[19]", "result": 109, "unit": "%"}, {"measurement": "viability, T/C", "setting": "[20]", "result": 52.2, "unit": "%"}, {"measurement": "viability, T/C", "setting": "[21]", "result": 12.7, "unit": "%"}, {"measurement": "viability, T/C", "setting": "[22]", "result": 8.94, "unit": "%"}, {"measurement": "viability, T/C", "setting": "[23]", "result": 7.59, "unit": "%"}, {"measurement": "viability, T/C", "setting": "[24]", "result": 4.06, "unit": "%"}, {"measurement": "viability, T/C", "setting": "[25]", "result": 112, "unit": "%"}, {"measurement": "viability, T/C", "setting": "[26]", "result": 48.2, "unit": "%"}, {"measurement": "viability, T/C", "setting": "[27]", "result": 14.7, "unit": "%"}, {"measurement": "viability, T/C", "setting": "[28]", "result": 8.35, "unit": "%"}, {"measurement": "viability, T/C", "setting": "[29]", "result": 7.58, "unit": "%"}, {"measurement": "viability, T/C", "setting": "[30]", "result": 3.81, "unit": "%"}, {"measurement": "viability, T/C", "setting": "[31]", "result": 112, "unit": "%"}, {"measurement": "viability, T/C", "setting": "[32]", "result": 42, "unit": "%"}, {"measurement": "viability, T/C", "setting": "[33]", "result": 15.8, "unit": "%"}, {"measurement": "viability, T/C", "setting": "[34]", "result": 8.17, "unit": "%"}, {"measurement": "viability, T/C", "setting": "[35]", "result": 7.6, "unit": "%"}, {"measurement": "viability, T/C", "setting": "[36]", "result": 4.01, "unit": "%"}]}, {"smiles": "O=C(Nc1ccc(O)c(NS(=O)(=O)c2ccc(F)cc2)c1)c1ccc(-c2ccccc2)cc1", "note": "+ COC1C(OC(N)=O)C(O)C(Oc2ccc3c(O)c(NC(=O)c4ccc(O)c(CC=C(C)C)c4)c(=O)oc3c2C)OC1(C)C", "values": [{"measurement": "IC50", "setting": "second compound 0.0316 µM", "result": 8.24, "unit": "µM"}, {"measurement": "IC50", "setting": "second compound 0.1 µM", "result": 8.44, "unit": "µM"}, {"measurement": "IC50", "setting": "second compound 0.316 µM", "result": 8.45, "unit": "µM"}, {"measurement": "IC50", "setting": "second compound 1 µM", "result": 8.14, "unit": "µM"}, {"measurement": "IC50", "setting": "second compound 3.16 µM", "result": 7.83, "unit": "µM"}, {"measurement": "IC50", "setting": "second compound 10 µM", "result": 7.63, "unit": "µM"}, {"measurement": "viability, T/C", "setting": "[1]", "result": 101, "unit": "%"}, {"measurement": "viability, T/C", "setting": "[2]", "result": 101, "unit": "%"}, {"measurement": "viability, T/C", "setting": "[3]", "result": 119, "unit": "%"}, {"measurement": "viability, T/C", "setting": "[4]", "result": 116, "unit": "%"}, {"measurement": "viability, T/C", "setting": "[5]", "result": 106, "unit": "%"}, {"measurement": "viability, T/C", "setting": "[6]", "result": 38.7, "unit": "%"}, {"measurement": "viability, T/C", "setting": "[7]", "result": 109, "unit": "%"}, {"measurement": "viability, T/C", "setting": "[8]", "result": 105, "unit": "%"}, {"measurement": "viability, T/C", "setting": "[9]", "result": 110, "unit": "%"}, {"measurement": "viability, T/C", "setting": "[10]", "result": 98.2, "unit": "%"}, {"measurement": "viability, T/C", "setting": "[11]", "result": 103, "unit": "%"}, {"measurement": "viability, T/C", "setting": "[12]", "result": 40.8, "unit": "%"}, {"measurement": "viability, T/C", "setting": "[13]", "result": 105, "unit": "%"}, {"measurement": "viability, T/C", "setting": "[14]", "result": 110, "unit": "%"}, {"measurement": "viability, T/C", "setting": "[15]", "result": 113, "unit": "%"}, {"measurement": "viability, T/C", "setting": "[16]", "result": 110, "unit": "%"}, {"measurement": "viability, T/C", "setting": "[17]", "result": 106, "unit": "%"}, {"measurement": "viability, T/C", "setting": "[18]", "result": 40.4, "unit": "%"}, {"measurement": "viability, T/C", "setting": "[19]", "result": 106, "unit": "%"}, {"measurement": "viability, T/C", "setting": "[20]", "result": 111, "unit": "%"}, {"measurement": "viability, T/C", "setting": "[21]", "result": 111, "unit": "%"}, {"measurement": "viability, T/C", "setting": "[22]", "result": 113, "unit": "%"}, {"measurement": "viability, T/C", "setting": "[23]", "result": 98.8, "unit": "%"}, {"measurement": "viability, T/C", "setting": "[24]", "result": 39, "unit": "%"}, {"measurement": "viability, T/C", "setting": "[25]", "result": 109, "unit": "%"}, {"measurement": "viability, T/C", "setting": "[26]", "result": 122, "unit": "%"}, {"measurement": "viability, T/C", "setting": "[27]", "result": 112, "unit": "%"}, {"measurement": "viability, T/C", "setting": "[28]", "result": 111, "unit": "%"}, {"measurement": "viability, T/C", "setting": "[29]", "result": 94.2, "unit": "%"}, {"measurement": "viability, T/C", "setting": "[30]", "result": 37.9, "unit": "%"}, {"measurement": "viability, T/C", "setting": "[31]", "result": 107, "unit": "%"}, {"measurement": "viability, T/C", "setting": "[32]", "result": 104, "unit": "%"}, {"measurement": "viability, T/C", "setting": "[33]", "result": 108, "unit": "%"}, {"measurement": "viability, T/C", "setting": "[34]", "result": 102, "unit": "%"}, {"measurement": "viability, T/C", "setting": "[35]", "result": 101, "unit": "%"}, {"measurement": "viability, T/C", "setting": "[36]", "result": 34.6, "unit": "%"}]}]}
